Measurements as given in ChEMBL document CHEMBL5042556, “Lead Optimization to Advance Protease-Activated Receptor-1 Antagonists in Early Discovery” (J Med Chem, 2022).

How the values were obtained:
[1] = Oral bioavailability in rat at 10 mg/kg; format: ADME, organism-based; details: in vivo
[2] = Plasma protein binding in rat assessed as unbound fraction; format: ADME, cell-free
[3] = Clearance in mouse hepatocyte measured per 10^6 cells; format: ADME, cell-based; details: hepatocytes
[4] = Oral bioavailability in dog at 1 mg/kg; format: ADME, organism-based, Canis lupus familiaris; details: in vivo
[5] = Clearance in cynomolgus monkey at 0.3 mg/kg, iv; format: ADME, organism-based, Macaca fascicularis; details: in vivo
[6] = Plasma protein binding in dog assessed as unbound fraction; format: ADME, cell-free, Canis lupus familiaris
[7] = Dose normalized Cmax in Sprague-Dawley rat at 50 mg/kg, po; format: ADME, organism-based; details: in vivo
[8] = Clearance in rat at 3 mg/kg, iv; format: ADME, organism-based; details: in vivo
[9] = Cmax in Sprague-Dawley rat at 10 mg/kg, po; format: ADME, organism-based; parameters: route oral, dose 10 mg/kg; details: in vivo
[10] = target: T1, Proteinase-activated receptor 1 (Homo sapiens, UniProt P25116); experiment: Antagonist activity at human PAR-1 expressed in HEK293 cells assessed as reduction in TRAP induced calcium signal at 3 uM by FLIPR analysis; format: functional, cell-based
T1 sequence (P25116 whole entry): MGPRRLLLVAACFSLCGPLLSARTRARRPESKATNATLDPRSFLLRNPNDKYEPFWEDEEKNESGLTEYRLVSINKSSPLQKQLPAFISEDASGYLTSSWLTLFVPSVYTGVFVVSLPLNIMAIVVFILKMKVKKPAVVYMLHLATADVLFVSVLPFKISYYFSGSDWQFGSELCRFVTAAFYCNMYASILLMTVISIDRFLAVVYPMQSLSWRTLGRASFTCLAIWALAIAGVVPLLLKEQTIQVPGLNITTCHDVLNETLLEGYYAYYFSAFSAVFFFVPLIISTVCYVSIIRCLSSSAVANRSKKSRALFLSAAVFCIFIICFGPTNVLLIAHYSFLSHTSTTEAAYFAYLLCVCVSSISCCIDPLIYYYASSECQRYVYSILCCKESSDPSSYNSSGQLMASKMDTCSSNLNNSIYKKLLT

[11] = Dose normalized AUC in Sprague-Dawley rat at 10 mg/kg, po; format: ADME, organism-based; details: in vivo
[12] = Volume of distribution in rat at 0.3 mg/kg, iv; format: ADME, organism-based; details: in vivo
[13] = Dose normalized AUC in Sprague-Dawley rat at 50 mg/kg, po; format: ADME, organism-based; details: in vivo
[14] = Cmax in Sprague-Dawley rat at 30 mg/kg, po; format: ADME, organism-based; parameters: route oral, dose 30 mg/kg; details: in vivo
[15] = Plasma protein binding in cynomolgus monkey assessed as unbound fraction; format: ADME, cell-free, Macaca fascicularis
[16] = Clearance in rat hepatocyte measured per 10^6 cells; format: ADME, cell-based; details: hepatocytes
[17] = Dose normalized Cmax in Sprague-Dawley rat at 3 mg/kg, po; format: ADME, organism-based; details: in vivo
[18] = Toxicity in rat assessed as non-toxic AUC for tissue toxicity at 30 mg/kg; format: organism-based; details: in vivo
[19] = Ex vivo inhibition of PAR-1 in cynomolgus monkey whole blood assessed as inhibition of TRAP-induced platelet aggregation at 0.3 mg/kg, po measured after 24 hrs; format: functional; details: Macaca fascicularis
[20] = Unbound clearance in cynomolgus monkey at 0.3 mg/kg, iv; format: ADME, organism-based, Macaca fascicularis; details: in vivo
[21] = Clearance in human hepatocyte measured per 10^6 cells; format: ADME, cell-based; details: hepatocytes
[22] = Toxicity in rat assessed as non-toxic AUC for liver bioactivation at 30 mg/kg; format: organism-based; details: in vivo
[23] = MRT in cynomolgus monkey at 1 mg/kg, iv; format: ADME, organism-based, Macaca fascicularis; details: in vivo
[24] = Clearance in dog hepatocyte measured per 10^6 cells; format: ADME, cell-based, Canis lupus familiaris; details: hepatocytes
[25] = AUC in Sprague-Dawley rat at 3 mg/kg, po; format: ADME, organism-based; parameters: dose 3 mg/kg; details: in vivo
[26] = Dose normalized AUC in Sprague-Dawley rat at 3 mg/kg, po; format: ADME, organism-based; details: in vivo
[27] = Clearance in dog at 0.3 mg/kg, iv; format: ADME, organism-based, Canis lupus familiaris; details: in vivo
[28] = Cmax in Sprague-Dawley rat at 50 mg/kg, po; format: ADME, organism-based; parameters: route oral, dose 50 mg/kg; details: in vivo
[29] = MRT in rat at 1 mg/kg, iv; format: ADME, organism-based; details: in vivo
[30] = AUC in Sprague-Dawley rat at 10 mg/kg, po; format: ADME, organism-based; parameters: dose 10 mg/kg; details: in vivo
[31] = Ex vivo inhibition of PAR-1 in cynomolgus monkey whole blood assessed as inhibition of TRAP-induced platelet aggregation at 1 mg/kg, po measured after 24 hrs; format: functional; details: Macaca fascicularis
[32] = Cmax in Sprague-Dawley rat at 3 mg/kg, po; format: ADME, organism-based; parameters: route oral, dose 3 mg/kg; details: in vivo
[33] = Dose normalized Cmax in Sprague-Dawley rat at 30 mg/kg, po; format: ADME, organism-based; details: in vivo
[34] = Oral bioavailability in cynomolgus monkey at 1 mg/kg,; format: ADME, organism-based, Macaca fascicularis; details: in vivo
[35] = AUC in Sprague-Dawley rat at 30 mg/kg, po; format: ADME, organism-based; parameters: dose 30 mg/kg; details: in vivo
[36] = MRT in rat at 3 mg/kg, iv; format: ADME, organism-based; details: in vivo
[37] = AUC in Sprague-Dawley rat at 50 mg/kg, po; format: ADME, organism-based; parameters: dose 50 mg/kg; details: in vivo
[38] = Unbound volume of distribution in dog at 0.3 mg/kg, iv; format: ADME, organism-based, Canis lupus familiaris; details: in vivo
[39] = Unbound volume of distribution in cynomolgus monkey at 0.3 mg/kg, iv; format: ADME, organism-based, Macaca fascicularis; details: in vivo
[40] = Volume of distribution in cynomolgus monkey at 0.3 mg/kg, iv; format: ADME, organism-based, Macaca fascicularis; details: in vivo
[41] = Unbound clearance in rat at 3 mg/kg, iv; format: ADME, organism-based; details: in vivo
[42] = MRT in dog at 0.3 mg/kg, iv; format: ADME, organism-based, Canis lupus familiaris; details: in vivo
[43] = Apparent permeability in MDCKII-LE cells; format: ADME, cell-based, Canis lupus familiaris; details: dog, MDCK
[44] = Dose normalized Cmax in Sprague-Dawley rat at 10 mg/kg, po; format: ADME, organism-based; details: in vivo
[45] = Dose normalized AUC in Sprague-Dawley rat at 30 mg/kg, po; format: ADME, organism-based; details: in vivo
[46] = Unbound volume of distribution in rat at 3 mg/kg, iv; format: ADME, organism-based; details: in vivo
[47] = Volume of distribution in dog at 0.3 mg/kg, iv; format: ADME, organism-based, Canis lupus familiaris; details: in vivo

For `C[C@H]1OC(=O)[C@]2(N)CC(F)(F)[C@@H](C)[C@H](/C=C/c3ccc(-c4ccccc4C#N)cn3)[C@H]12`, the bioavailability [1] was 54%, the fraction unbound [2] was 0.09 and the CLint [3] was 3.3 µL/min/1e6 cells. It also gave a bioavailability [4] of 100%, a clearance [5] of 12 mL/min/kg and a fraction unbound [6] of 0.15. The Cmax/dose [7] was 0.56 µM, the clearance [8] was 31 mL/min/kg and the Cmax [9] was 5.6 µM. It also gave an IC50 [10] of 7 nM, an AUCt/dose [11] of 1.2 µM·h and a Vd [12] of 3.6 L/kg. It also gave an AUCt/dose [13] of 3.8 µM·h, a Cmax [14] of 12 µM and a fraction unbound [15] of 0.15. For the same molecule, the CLint [16] was 13 µL/min/1e6 cells, the Cmax/dose [17] was 0.12 µM and the AUC [18] was 44 µM·h. It also gave an inhibition in vivo at 0.3 mg/kg [19] of 100%, a CL free [20] of 12 mL/min/kg and a CLint [21] of 1.1 µL/min/1e6 cells. The AUC [22] was 44 µM·h, the MRT [23] was 24 h and the CLint [24] was 2 µL/min/1e6 cells. It also gave an AUC [25] of 1.31 µM·h, an AUCt/dose [26] of 0.44 µM·h and a clearance [27] of 5.9 mL/min/kg. For the same molecule, the Cmax [28] was 28 µM, the MRT [29] was 1.4 h and the AUC [30] was 12.1 µM·h. The inhibition in vivo at 1 mg/kg [31] was 100%, the Cmax [32] was 0.36 µM and the Cmax/dose [33] was 0.4 µM. For the same molecule, the bioavailability [34] was 37%, the AUC [35] was 97 µM·h and the MRT [36] was 1.9 h. For the same molecule, the AUC [37] was 191 µM·h, the Vdu [38] was 41 L/kg and the Vdu [39] was 17 L/kg. For the same molecule, the Vd [40] was 2.5 L/kg, the CL free [41] was 352 mL/min/kg and the MRT [42] was 18 h. For the same molecule, the Papp [43] was 38.3 ×10⁻⁶ cm/s, the Cmax/dose [44] was 0.56 µM and the AUCt/dose [45] was 3.2 µM·h. It also gave a Vdu [46] of 41 L/kg and a Vd [47] of 6.3 L/kg.
